What was measured:
Bcl-2-like protein 2 = molecular target: T1, Bcl-2-like protein 2 (Homo sapiens, UniProt Q92843); test: Displacement of BODIPY-Bak conjugated peptide from GST-tagged human wild type Bcl-W expressed in Escherichia coli BL21 cells at 10 uM after 3 hrs by fluorescence polarization competition assay
T1 sequence (Q92843 whole entry): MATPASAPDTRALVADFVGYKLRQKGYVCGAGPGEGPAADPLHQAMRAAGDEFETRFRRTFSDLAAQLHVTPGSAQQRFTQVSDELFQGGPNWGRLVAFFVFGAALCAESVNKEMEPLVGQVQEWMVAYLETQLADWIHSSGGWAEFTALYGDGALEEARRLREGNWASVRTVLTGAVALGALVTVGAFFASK

Bcl-2-like protein 1 [1] = molecular target: Bcl-2-like protein 1 (Homo sapiens, UniProt Q07817, L130G); test: Displacement of BODIPY-Bak conjugated peptide from GST-tagged human Bcl-2-like protein 1 L130G mutant expressed in Escherichia coli BL21 cells at 10 uM after 3 hrs by fluorescence polarization competition assay
Bcl-2-like protein 1 [2] = molecular target: Bcl-2-like protein 1 (Homo sapiens, UniProt Q07817); test: Displacement of BODIPY-Bak conjugated peptide from GST-tagged human Wild type Bcl-2-like protein 1 expressed in Escherichia coli BL21 cells at 10 uM after 3 hrs by fluorescence polarization competition assay
Bcl-2-like protein 1 [3] = molecular target: Bcl-2-like protein 1 (Homo sapiens, UniProt Q07817, L130V); test: Displacement of BODIPY-Bak conjugated peptide from GST-tagged human Bcl-2-like protein 1 L130V mutant expressed in Escherichia coli BL21 cells at 10 uM after 3 hrs by fluorescence polarization competition assay
[4] = molecular target: Induced myeloid leukemia cell differentiation protein Mcl-1 homolog (Mus musculus, UniProt P97287); test: Displacement of BODIPY-Bak conjugated peptide from GST-tagged mouse wild type MCL1 expressed in Escherichia coli BL21 cells at 10 uM after 3 hrs by fluorescence polarization competition assay
Chain of Induced myeloid leukemia cell differentiation protein Mcl-1 homolog (P97287 whole entry): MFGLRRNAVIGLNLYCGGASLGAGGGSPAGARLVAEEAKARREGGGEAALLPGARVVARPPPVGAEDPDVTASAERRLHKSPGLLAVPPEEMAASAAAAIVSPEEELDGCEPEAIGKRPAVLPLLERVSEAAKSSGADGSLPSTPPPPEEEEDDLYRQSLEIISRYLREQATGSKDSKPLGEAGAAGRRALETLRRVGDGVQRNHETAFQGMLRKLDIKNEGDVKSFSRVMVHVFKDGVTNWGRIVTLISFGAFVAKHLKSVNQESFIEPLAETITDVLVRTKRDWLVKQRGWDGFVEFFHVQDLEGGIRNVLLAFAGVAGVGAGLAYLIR

Chain of Bcl-2-like protein 1 (Homo sapiens, UniProt Q07817, L130G) (Q07817 whole entry L130G): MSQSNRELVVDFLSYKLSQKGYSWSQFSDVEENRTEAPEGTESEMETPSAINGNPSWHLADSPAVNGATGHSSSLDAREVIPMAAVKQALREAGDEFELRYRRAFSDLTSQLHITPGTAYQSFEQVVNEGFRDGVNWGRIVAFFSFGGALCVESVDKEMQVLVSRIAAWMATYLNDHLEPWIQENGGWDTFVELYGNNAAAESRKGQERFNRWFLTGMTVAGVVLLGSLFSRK
Chain of Bcl-2-like protein 1 (Homo sapiens, UniProt Q07817, L130V) (Q07817 whole entry L130V): as the sequence (Q07817 whole entry L130G) above, with G130V counted along it
Chain of Bcl-2-like protein 1 (Homo sapiens, UniProt Q07817) (Q07817 whole entry): as the sequence (Q07817 whole entry L130G) above, with G130L counted along it

SMILES	Ki (Bcl-2-like protein 2) [nM]	Ki (Bcl-2-like protein 1 [1]) [nM]	Ki (Bcl-2-like protein 1 [2]) [nM]	Ki (Bcl-2-like protein 1 [3]) [nM]	Ki [4] [nM]
C[C@H]1CN(c2ccc(C(=O)NS(=O)(=O)c3ccc(N[C@H](CCN(C)C)CSc4ccccc4)c([N+](=O)[O-])c3)cc2)CCN1Cc1ccccc1C(F)(F)F	63	99	< 1	< 1	2000
C[C@@H]1CN(c2ccc(C(=O)NS(=O)(=O)c3ccc(N[C@H](CCN(C)C)CSc4ccccc4)c([N+](=O)[O-])c3)cc2)CCN1Cc1ccccc1C(F)(F)F	55	81	1	3.7	1500
CC1CN(c2ccc(C(=O)NS(=O)(=O)c3ccc(N[C@H](CCN(C)C)CSc4ccccc4)c([N+](=O)[O-])c3)cc2)CC(C)N1Cc1ccccc1C(F)(F)F (stereo not given in full)	170	140	68	96	> 10000
CC(C)[C@H]1CN(Cc2ccccc2C(F)(F)F)CCN1c1ccc(C(=O)NS(=O)(=O)c2ccc(N[C@H](CCN(C)C)CSc3ccccc3)c([N+](=O)[O-])c2)cc1	59	83	3.3	63	2000
CC(C)[C@@H]1CN(Cc2ccccc2C(F)(F)F)CCN1c1ccc(C(=O)NS(=O)(=O)c2ccc(N[C@H](CCN(C)C)CSc3ccccc3)c([N+](=O)[O-])c2)cc1	21	280	2.6	42	2000

Source: ChEMBL document CHEMBL1914418, “Biochemical and pharmacological profiling of the pro-survival protein Bcl-xL” (Bioorg Med Chem Lett, 2011)
